Test results taken from US10442845B2, “Interferon analogs” (BiOrion Technologies B.V., priority 2009, dated 2019).
Bridge positions count the residues as written; N and C are the ends. Ends that are not written are not given here.

Experiments:
[1] = system: mouse NIH3T3 fibroblasts; assay: Anti-fibrotic effects in mouse NIH3T3 fibroblasts (α-SMA staining); format: cell-based; conditions: mimetic IFNγ 1 μg/ml, 48 hrs
Procedure: Briefly, 3T3 fibroblasts were seeded in 24 well plates at the density of 6×10^4 cells/well, After 24 hrs, cells were starved in 0.5% FBS containing medium for overnight. Thereafter, cells were incubated in starvation medium with different compounds (PDGF 50 ng/ml, TGFβ 10 ng/ml, mimetic IFNγ 1 μg/ml, 50 ng/ml PDGF+1 μg/ml mimetic IFNγ and 10 ng/ml TGFβ+1 μg/ml mimetic IFNγ). After 48 hrs of incubation, cells were washed, fixed with ethanol:acetone (1:1) and stained for α-SMA (marker of activated fibroblasts).

[2] = system: PDGFß-receptor; assay: Binding of FITC-labeled PPB or BiPPB to cultured or freshly isolated primary cells; parameters: species or system rat; conditions: for binding (fluorescence microscopy): FITC-coupled, 10 μg/ml, 2 h, room temperature, rat hepatic stellate cells and other cell types tested
Procedure: The binding of BiPPB was performed in primary freshly isolated rat hepatic stellate cells. Cells were seeded in the 8-well glass plates (Lab-Tek, Nunc, Naperville, Ill.) at 30,000 cells/well in the culture medium. After overnight incubation at 37° C./5% CO2, cells were washed with PBS and subsequently incubated with FITC-labeled PPB (monocyclic) or BiPPB (bicyclic: 10 μg/ml) at room temperature. To block the binding, anti-PDGF-βR IgG was added to the cells 1 h before FITC coupled PPB or BiPPB. After 2 h, cells were washed 3 to 4 times with cold PBS and fixed with 4% paraformaldehyde. The nuclei were counterstained with DAPI and mounted in citifluor (anti-fade reagent) and visualized under fluorescent microscope.
Similar binding experiments were performed in primary freshly isolated human myofibroblasts, mouse 3T3 fibroblasts and human hepatic stellate cells (LX2). For human Hepatic stellate cells, the sequence of BiPPB was as follows: […]

[3] = system: Human Hepatocytes (HepG2); assay: ICAM1 expression in human hepatocytes (HepG2); format: cell-based; conditions: 1 ug/ml, 24 hrs, 18srRNA housekeeping control
Procedure: Human Hepatocytes (HepG2) were plated in 12 well plates (1×10^5 cells/well). The cells were grown overnight in 5%/37° C./CO2 incubator. […] After 24 hrs of incubation, cells were lysed, RNA was isolated and reverse transcribed. The cDNA was used for the analysis of Inter-Cellular Adhesion Molecule 1 (ICAM1) expression, which is known to be induced in response to IFNγ. 18srRNA was used a housekeeping control.

[4] = system: liver fibrosis models induced with CCl4 in mice; assay: 4 days (acute) and 8 weeks (chronic) CCl4 liver fibrosis models in mice; format: in vivo, mouse
Procedure: In vivo, the targeted conjugate was examined in 4 days (acute) and 8 weeks (chronic) liver fibrosis models induced with CCl4 in mice. Several fibrotic parameters and infiltration of inflammatory cells were assessed in the livers using immunohistochemistry and gene expression analysis.

[5] = system: established advanced liver fibrosis mouse model; assay: Established advanced liver fibrosis mouse model (8 weeks CCl4), liver section staining; format: in vivo
Procedure: Male balb/c mice (20-22 g) were treated with olive oil or increasing doses of CCl4 (week 1: 0.5 ml/kg; week 2: 0.8 ml/kg and week 3-8: 1 ml/kg prepared in olive oil) twice weekly by intra-peritoneal injections for 8 weeks. In week 7 and 8, mice were treated intravenously with PBS, mimeticIFNγ-PEG or MimeticIFNγ-PEG-BiPPB (5 μg/mice, thrice per week). All mice were sacrificed at week 8; blood and liver samples were collected for subsequent measurements. The liver sections were stained for Collagen I and desmin, CD68, 33D1 and MHC class II.

[6] = system: acute CCL4-induced liver injury mouse model; assay: Blood count analysis (side effects) in acute CCl4-induced liver injury mouse model; format: in vivo; conditions: 50,000 U/mice at day 2 and 3; p<0.0025
Procedure: At day 1, the animals were given a single intra-peritoneal dose (1 ml/kg) of carbon tetrachloride (CCl4) in olive oil or olive oil (controls n=6). After 24 hrs of CCl4 injection, at day 2 and 3, animals were treated either with PBS (n=6), 50,000 U/mice of IFNγ (n=6), 50,000 U/mice of mimetic IFNγ (n=5), 50,000 U/mice of IFNγ-BiPPB (n=6), 50,000 U/mice of Mimetic IFNγ-BiPPB (n=6).

[7] = 5 μg/mice i.v. thrice per week, week 7 and 8, vs untreated CCl4-mice

## AKFEVNNPQVQRQAFNELIRVVHQLLPESSLRKRKRSR (listed as Mus musculus) [Recombinant mimetic IFNγ]
[1]
  anti-fibrotic effects (α-Smooth muscle actin staining): anti-fibrotic effects

## C(1)S R N L I D C(1)G G G D G G C(2)S R N L I D C(2) (CSRNLIDCGGGDGGCSRNLIDC; disulfide 1-8, 15-22; also: FITC label) [BiPPB, Bicyclic peptide against the PDGF-beta-receptor; KGSGSGG linker variant for human hepatic stellate cells]
[2]
  binding (fluorescence microscopy): specifically binds
[2]; listed as FITC-coupled BiPPB
  binding (fluorescence microscopy): significant binding
[2]; Myo-fibroblast-like cells of rat, mouse and human
  species specificity of binding: species non-specific
[2]; anti-PDGF-βR IgG added 1 h before
  binding after blocking with PDGF receptor antibody: almost completely blocked

## FEVNNPQVQRQAFNELIRVVHQLLPESSLRKRKRSR [mouse truncated IFNγ, signaling moiety of murine IFNγ (mimIFNγ), without targeting domain]
[3]
  ICAM1 expression: neither mouse truncated IFNγ nor Lac-HSA induced ICAM1 expression
[3]; listed as mouse (truncated) INFγ
  ICAM1 expression: ineffective

## human IFNγ: human interferon gamma, positive control in human hepatocytes
[3]
  ICAM1 expression: upregulated ICAM1 expression

B1: INFγ: full length mouse Interferon gamma, SEQ ID NO: 54 (protein, listed as Mus musculus)
chain: MNATHCILALQLFLMAVSGCYCHGTVIESLESLNNYFNSSGIDVEEKSLFLDIWRNWQKDGDMKILQSQIISFYLRLFEVLKDNQAISNNISVIESHLITTFFSNSKAKKDAFMSIAKFEVNNPQVQRQAFNELIRVVHQLLPESSLRKRKRSRC
[4]; both acute and chronic liver fibrosis models
  fibrotic parameters: only a moderate reduction
[4]; data not shown
  MHCII expression: increased MHCII expression
  infiltration of inflammatory cells (CD68+ macrophages, neutrophils, 33D1+ dendritic cells) / inflammatory response: induced infiltration of inflammatory cells
[5]; [7]
  collagen I staining (liver sections): only a small reduction
  desmin staining (liver sections): only a small reduction
[5]; chronic CCl4 model
  MHCII expression in livers: increased MHCII expression
  infiltration of inflammatory cells (CD68+ macrophages, neutrophils, 33D1+ dendritic cells) in livers: induced infiltration of inflammatory cells
[6]
  reduction in platelet count (PLT): reduction in platelet count
